Melting point data for 12 molecules are collected here from US7786142B2, “Heterocyclic compounds as pSTAT3/IL-6 inhibitors” (Orchid Research Laboratories, Ltd., priority 2005, dated 2010).

In general, melting point refers to the temperature of the solid-liquid transition.

With `O=C(c1cnc2ccccc2n1)N1CCN(CC(O)COc2cccc3[nH]c4ccccc4c23)CC1` (stereo not drawn) [Example 46, 1-(9H-carbazol-4-yloxy)-3-[4-(quinoxaline-2-carbonyl)piperazin-1-yl]propan-2-ol], the melting point is 89 to 92 °C.

`N#Cc1ccc(C(=O)N2CCN(CC(O)COc3cccc4[nH]c5ccccc5c34)CC2)cn1` (stereo not drawn) [Example 47, 1-(9H-carbazol-4-yloxy)-3-[4-(6-cyanonicotine-3-carbonyl)piperazin-1-yl]propan-2-ol] displayed a melting point of 92 to 95 °C.

`O=C(c1ccc2c(c1)OCO2)N1CCN(CC(O)COc2cccc3[nH]c4ccccc4c23)CC1` (stereo not drawn) [Example 50, 1-(9H-carbazol-4-yloxy)-3-[4-(1,3-benzodioxol-5-ylcarbonyl)piperazin-1-yl]propan-2-ol]: the melting point lay in the range of 70 to 73 °C.

On to `O=C(CCc1cc2ccccc2[nH]1)N1CCN(CC(O)COc2cccc3[nH]c4ccccc4c23)CC1` (stereo not drawn) [Example 51], for which the melting point lay within 112 to 114 °C.

For `O=C(c1cc2ccccc2o1)N1CCN(CC(O)COc2cccc3[nH]c4ccccc4c23)CC1` (stereo not drawn) [Example 54, 3-[4-(1-Benzofuran-2-ylcarbonyl)piperazin-1-yl]-1-(9H-carbazol-4-yloxy)propan-2-ol], the melting point lay in the range of 93 to 96 °C.

`O=C(c1ccc(Br)s1)N1CCN(CC(O)COc2cccc3[nH]c4ccccc4c23)CC1` (stereo not drawn) [Example 56, 3-[4-(5-Bromothiophene-2-carbonyl)piperazin-1-yl]-1-(9H-carbazol-4-yloxy) propan-2-ol] yielded a melting point of 78 to 80 °C.

In turn, `COc1cccc2sc(NC(=O)CN3CCN(CC(O)COc4cccc5[nH]c6ccccc6c45)CC3)nc12` (stereo not drawn) [Example 61, 2-{4-[3-(9H-carbazol-4-yloxy)-2-hydroxypropyl]-piperazin-1-yl}-N-(4-methoxy-1,3-benzothiazol-2-yl)acetamide] showed a melting point of 289 to 292 °C.

Consider `O=C(CN1CCN(CC(O)COc2cccc3[nH]c4ccccc4c23)CC1)Nc1ccccc1` (stereo not drawn) [Example 62, 2-{4-[3-(9H-carbazol-4-yloxy)-2-hydroxypropyl]-piperazin-1-yl}-N-phenyl acetamide], for which the melting point lay in the range of 69 to 71 °C.

Regarding `O=C(c1ccc2c(c1)OCO2)N1CCC(NCC(O)COc2cccc3[nH]c4ccccc4c23)CC1` (stereo not drawn) [Example 68, 3-{[1-(1,3-Benzodioxol-5-ylcarbonyl)piperidin-4-yl]amino}-1-(9H-carbazol-4-yloxy)propan-2-ol], the melting point lay within 88 to 90 °C.

In turn, `O=C(Cc1c(F)c(F)c(F)c(F)c1F)N1CCC(NCC(O)COc2cccc3[nH]c4ccccc4c23)CC1` (stereo not drawn) [Example 69, 1-(9H-carbazol-4-yloxy)-3-{[1-(pentafluorophenyl)acetylpiperidin-4-yl]amino}propan-2-ol] showed a melting point of 80 to 83 °C.

Take `COc1ccc(CC(=O)N2CCC(NCC(O)COc3cccc4[nH]c5ccccc5c34)CC2)cc1` (stereo not drawn) [Example 71, 1-(9H-carbazol-4-yloxy)-3-{[1-(4-methoxyphenylacetyl)piperidin-4-yl]amino}propan-2-ol]: the melting point was 54 to 57 °C.

In turn, `CC(=O)c1ccc(S(=O)(=O)N2CCN(CC(O)COc3cccc4[nH]c5ccccc5c34)CC2)cc1` (stereo not drawn) [Example 75, 3-[4-(4-Acetylphenylsulfonyl)piperazin-1-yl]-1-(9H-carbazol-4-yloxy)propan-2-ol] yielded a melting point of 183 to 185 °C.
